Experiments:
[1] = test system: insulin resistant adipocytes (3T3 L1); experiment: In vitro model exhibiting insulin resistance (IR assay): 14C-2-deoxyglucose uptake; type: cell-based; settings: glucose uptake; for fold induction at 10 µM: Mus musculus, dexamethasone-induced insulin resistant 3T3 L1 adipocytes, test compound 10 μM/mL, vehicle = 1.0, cut off 1.50 fold, read-out: Fold activity (fold activity over vehicle); for % of Rosiglitazone (comparison with Rosiglitazone): insulin resistant 3T3 L1 adipocytes, test compound 10 μM vs Rosiglitazone 0.1 μM
Procedure: The assay was designed as in the reference, British Journal of Pharmacology, 130, 351-58, 2000, the disclosure of which is incorporated by reference for the teaching of the assay. The solution of test compound (10 μM/mL) was prepared in DMSO. […] Differentiation into adipocytes was induced by the known methods as described below. (See, also, J. Biol. […] 3T3 L1 fibroblasts were seeded in 24- or 6-well plates at a density of 0.5−2×10^4 cells/well and were allowed to reach maximal confluency. The confluent fibroblasts were exposed to culture medium for 2 days. […] The mature adipocytes were exposed to dexamethasone, 100 nM added in ethanol, in culture medium and incubated for 2 days. […] The test compound was also present during this period. After 3-4 hours, the medium was aspirated and replaced with Kreb's Ringer phosphate (KRP) buffer at pH 7.4 and with human/porcine insulin, 200 nM. The cells were incubated for 30 minutes at 37° C. […] After exactly 5 minutes, the plates were transferred to ice trays and medium was rapidly aspirated. The cell layer was washed twice with ice-cold phosphate buffered saline, (PBS), pH 7.4. […] Non-specific glucose uptake was assayed in wells exposed to cytochalasin B, inhibitor of glucose transport. […] Statistical analysis was performed using unpaired t-test.

[2] = biological target: T1, Mouse PPARγ (Mus musculus, UniProt P37238); experiment: Mouse PPARγ assay (TransAM PPARγ ELISA, 3T3-L1 fibroblasts); type: cell-based; settings: test compound 50 μM, 72 hrs
T1 construct: endogenous in cells; host or cells: 3T3-L1 fibroblasts
T1 sequence (P37238 1-505): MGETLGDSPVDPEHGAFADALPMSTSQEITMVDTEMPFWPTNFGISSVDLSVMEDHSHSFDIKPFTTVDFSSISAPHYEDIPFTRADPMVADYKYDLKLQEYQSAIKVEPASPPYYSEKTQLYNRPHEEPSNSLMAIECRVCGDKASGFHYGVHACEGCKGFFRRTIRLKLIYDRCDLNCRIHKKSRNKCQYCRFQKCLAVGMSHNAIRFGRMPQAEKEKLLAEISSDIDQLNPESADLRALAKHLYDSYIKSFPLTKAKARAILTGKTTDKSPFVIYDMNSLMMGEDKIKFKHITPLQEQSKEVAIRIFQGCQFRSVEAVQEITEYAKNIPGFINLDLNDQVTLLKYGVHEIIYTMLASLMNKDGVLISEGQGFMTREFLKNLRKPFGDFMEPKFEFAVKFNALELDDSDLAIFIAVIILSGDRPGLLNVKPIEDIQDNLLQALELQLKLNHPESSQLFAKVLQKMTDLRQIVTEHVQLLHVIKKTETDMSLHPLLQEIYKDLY
Procedure: The assay was designed as in the reference, Blood, 104(5), 1361-8, 2004, the disclosure of which is incorporated by reference for the teaching of the assay.
3T3-L1 fibroblasts were seeded in 6-well plates at a density of 4×10^4 cells/well and cultured in DMEM containing 10% calf serum. After 4-5 days, when the cells become confluent, each of test compound was added (from a 20 mM stock in DMSO) to the final concentration of 50 μM in DMEM supplemented with 10% FCS. […] The plates were incubated for 72 hrs at 37° C. in a CO2 incubator with fresh medium containing test substances added after first 48 hrs. After 72 hrs, the medium was removed; the cell layer was washed and processed for the PPARγ assay as per the instruction of the manufacturer (Active Motif, North America, California, USA). PPARγ activation was determined using 96-well ELISA assay as per the instruction manual (TransAM PPARγ. Active Motif, Cat 0.40196). Assay Readout was absorbance output from spectrophotometer for the mouse PPARγ assay. Luminescence data output was recorded for the human PPARγ assay.

[3] = test system: genetically diabetic db/db BL/6J mice; experiment: Screening in db/db BL/6J mice: reduction of plasma glucose levels; type: in vivo; settings: 150 mpk od, 10 days
Procedure: The protocol was designed as in references. • 1.
The screening of compounds was based on their ability to reduce the plasma glucose levels in genetically diabetic db/db BL/6J mice.
Male db/db mice (obtained from the Animal House of Nicholas Piramal Research Centre, Goregaon, Mumbai, India) were used for this study (body weight in the range of 30-40 g and age is 6-8 weeks) and were kept eight per cage in individually ventilated cages at controlled temperature (22±1° C.) and humidity (45±5%). Food and water were provided ad libitum during their laboratory stay, except for four hours fasting prior to blood sample collection. 12 hours light and dark cycle was followed during the whole study period.
After 4 hours fasting blood samples were collected from mice. Mice showing plasma glucose levels between 300 to 500 mg/dl were divided in groups (8-10 per group) such that the mean plasma glucose levels and variation within the group, for each group, is nearly same. After grouping, mice in respective groups received treatment with 0.5% CMC vehicle, standard compound or test compounds for 10 days.
After 4 hours fasting, mice were anaesthetized using isoflurane (inhalation anesthetic), and blood samples were collected through the retro orbital plexus. Collected blood samples were centrifuged at 7000 rpm for 10 minutes at 4° C.; Separated plasma was used for estimation of plasma glucose using diagnostic kits (Diasys, Germany). Plasma glucose levels of treated groups were normalized with control group using the following formula, which accounted for the changes in control group.
Formula used for normalization was *:{1−[…]}×100.

For Cc1ccc(S(=O)(=O)Nc2cnc(Oc3cc4ccccc4cn3)c(Cl)c2)cc1Cl [Example 3, 3-Chloro-N-(5-chloro-6-(isoquinolin-3-yloxy)pyridin-3-yl)-4-methylbenzenesulfonamide], the fold induction at 10 µM [1] was 2.3 ± 0.16 and the “% of Rosiglitazone (comparison with Rosiglitazone)” value [1] was 52 ± 6.5%.

N#Cc1ccc(S(=O)(=O)Nc2cnc(Oc3cc4ccccc4cn3)c(Cl)c2)cc1 [Example 5, N-(5-Chloro-6-(isoquinolin-3-yloxy)pyridin-3-yl)-4-cyanobenzenesulfonamide] was tested, and the fold induction at 10 µM [1] was 2.41 ± 0.12 and the “% of Rosiglitazone (comparison with Rosiglitazone)” value [1] was 55.1 ± 4.8%.

For O=S(=O)(Nc1cnc(Oc2cc3ccccc3cn2)c(Cl)c1)c1ccc(Cl)cc1F [Example 13, 4-Chloro-N-(5-chloro-6-(isoquinolin-3-yloxy)pyridin-3-yl)-2-fluorobenzenesulfonamide], the fold induction at 10 µM [1] was 1.4 ± 0.07 and the “% of Rosiglitazone (comparison with Rosiglitazone)” value [1] was 19.5 ± 3.51%.

For O=S(=O)(Nc1cnc(Oc2cc3ccccc3cn2)c(Cl)c1)c1ccc(F)cc1Cl [Example 15, 2-Chloro-N-(5-chloro-6-(isoquinolin-3-yloxy)pyridin-3-yl)-4-fluorobenzenesulfonamide], the fold induction at 10 µM [1] was 1.7 ± 0.02, the “% of Rosiglitazone (comparison with Rosiglitazone)” value [1] was 45.25 ± 1.04% and the “PPARγ activity (% of rosiglitazone)” value [2] was 0%.

Cc1ccc(S(=O)(=O)Nc2cnc(Oc3cc4ccccc4cn3)c(Cl)c2)cc1 [Example 16, N-(5-Chloro-6-(isoquinolin-3-yloxy)pyridin-3-yl)-4-methylbenzenesulfonamide] was tested, and the fold induction at 10 µM [1] was 1.6 ± 0.13, the “% of Rosiglitazone (comparison with Rosiglitazone)” value [1] was 38.47 ± 7.98% and the “PPARγ activity (% of rosiglitazone)” value [2] was 18.85%.

In the case of O=S(=O)(Nc1cnc(Oc2cc3ccccc3cn2)c(Cl)c1)c1ccc(Cl)c(Cl)c1 [Example 17, 3,4-Dichloro-N-(5-chloro-6-(isoquinolin-3-yloxy)pyridin-3-yl)benzenesulfonamide], the fold induction at 10 µM [1] is reported as 1.26 ± 0.02, the “% of Rosiglitazone (comparison with Rosiglitazone)” value [1] is reported as 21.20 ± 1.5% and the “PPARγ activity (% of rosiglitazone)” value [2] is reported as 12.57%.

With O=S(=O)(Nc1cnc(Oc2cc3ccccc3cn2)c(Cl)c1)c1ccc(OC(F)(F)F)cc1 [Example 18, N-(5-Chloro-6-(isoquinolin-3-yloxy)pyridin-3-yl)-4-(trifluoromethoxy)benzene-sulfonamide] the fold induction at 10 µM [1] was 1.77 ± 0.1 and the “% of Rosiglitazone (comparison with Rosiglitazone)” value [1] was 65%.

For COc1ccc(OC)c(S(=O)(=O)Nc2cnc(Oc3cc4ccccc4cn3)c(Cl)c2)c1 [Example 19, N-(5-Chloro-6-(isoquinolin-3-yloxy)pyridin-3-yl)-2,5-dimethoxybenzenesulfonamide], the fold induction at 10 µM [1] was 1.67 ± 0.13 and the “% of Rosiglitazone (comparison with Rosiglitazone)” value [1] was 50 ± 10.12%.

In the case of O=S(=O)(Nc1cnc(Oc2cc3ccccc3cn2)c(Cl)c1)c1ccc(C(F)(F)F)cc1Cl [Example 20, 2-Chloro-N-(5-chloro-6-(isoquinolin-3-yloxy)pyridin-3-yl)-4(trifluoromethyl)benzene sulfonamide], the fold induction at 10 µM [1] is reported as 2.4 ± 0.68 and the “% of Rosiglitazone (comparison with Rosiglitazone)” value [1] is reported as 36.7 ± 0.96%.

COc1ccc(S(=O)(=O)Nc2cnc(Oc3cc4ccccc4cn3)c(Cl)c2)cc1OC [Example 22, N-(5-Chloro-6-(isoquinolin-3-yloxy)pyridin-3-yl)-3,4-dimethoxybenzenesulfonamide] was tested, and the fold induction at 10 µM [1] was 1.76 ± 0.58 and the “% of Rosiglitazone (comparison with Rosiglitazone)” value [1] was 15.8 ± 1.8%.

With COc1ccc(S(=O)(=O)Nc2cnc(Oc3cc4ccccc4cn3)c(Cl)c2)cc1 [Example 24, N-(5-Chloro-6-(isoquinolin-3-yloxy)pyridin-3-yl)-4-methoxybenzenesulfonamide] the fold induction at 10 µM [1] was 1.8 ± 0.32, the “% of Rosiglitazone (comparison with Rosiglitazone)” value [1] was 46.2 ± 23.8% and the “Normalization with control (plasma glucose)” value [3] was “Inactive”.

With O=S(=O)(Nc1cnc(Oc2cnc3ccccc3c2)c(Cl)c1)c1ccc(Cl)cc1Cl [Example 27, 2,4-Dichloro-N-(5-chloro-6-(quinolin-3-yloxy)pyridin-3-yl)benzenesulfonamide] the fold induction at 10 µM [1] was 2.01 ± 0.23 and the “% of Rosiglitazone (comparison with Rosiglitazone)” value [1] was 57 ± 15.64%.

For Cc1ccc(S(=O)(=O)Nc2cnc(Oc3cnc4ccccc4c3)c(Cl)c2)cc1 [Example 28, N-(5-Chloro-6-(quinolin-3-yloxy)pyridin-3-yl)-4-methylbenzenesulfonamide], the fold induction at 10 µM [1] was 2.6 ± 0.17 and the “% of Rosiglitazone (comparison with Rosiglitazone)” value [1] was 71.77 ± 7.48%.

In the case of O=S(=O)(Nc1cnc(Oc2cnc3ccccc3c2)c(Cl)c1)c1ccc(Cl)c(Cl)c1 [Example 29, 3,4-Dichloro-N-(5-chloro-6-(quinolin-3-yloxy)pyridin-3-yl)benzenesulfonamide], the fold induction at 10 µM [1] is reported as 2.01 ± 0.09 and the “% of Rosiglitazone (comparison with Rosiglitazone)” value [1] is reported as 76 ± 6.11%.

For O=S(=O)(Nc1cnc(Oc2cnc3ccccc3c2)c(Cl)c1)c1ccc(C(F)(F)F)cc1Cl [Example 33, 2-Chloro-N-(5-chloro-6-(quinolin-3-yloxy)pyridin-3-yl)-4-(trifluoromethyl)benzene-sulfonamide], the fold induction at 10 µM [1] was 2.58 ± 0.11 and the “% of Rosiglitazone (comparison with Rosiglitazone)” value [1] was 68.59 ± 4.81%.

With O=S(=O)(Nc1cnc(Oc2cnc3ccccc3c2)c(Cl)c1)c1ccc(F)cc1 [Example 35, N-(5-Chloro-6-(quinolin-3-yloxy)pyridin-3-yl)-4-fluorobenzenesulfonamide] the fold induction at 10 µM [1] was 2.44 ± 0.08 and the “% of Rosiglitazone (comparison with Rosiglitazone)” value [1] was 62.36 ± 3.51%.

For O=S(=O)(c1ccc(Cl)cc1Cl)N(c1cnc(Oc2cnc3ccccc3c2)c(Cl)c1)S(=O)(=O)c1ccc(Cl)cc1Cl [Example 45, 2,4-Dichloro-N-[(2,4-dichlorophenyl)sulfonyl]-N-[5-chloro-6-(quinolin-3-yloxy)pyridin-3-yl]-benzenesulfonamide], the fold induction at 10 µM [1] was 2.13 ± 0.04 and the “% of Rosiglitazone (comparison with Rosiglitazone)” value [1] was 59.5 ± 2.26%.

O=S(=O)(Nc1cnc(Oc2ccc3ncccc3c2)c(Cl)c1)c1ccc(F)cc1F [Example 48, N-(5-Chloro-6-(quinolin-6-yloxy)pyridin-3-yl)-2,4-difluorobenzenesulfonamide] was tested, and the fold induction at 10 µM [1] was 1.82 ± 0.13 and the “% of Rosiglitazone (comparison with Rosiglitazone)” value [1] was 36.7 ± 7.3%.

From patent US8269010B2, “3-amino-pyridine derivatives for the treatment of metabolic disorders” (Piramal Healthcare Limited, priority 2006, dated 2012)
